“And” between values parts separate entries of the source, which are not always exact repeats. Identical values can stand only once.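 Method: 48-hour compound exposure of cells in 96-well plates, five concentrations, linear interpolation of endpoints. GI50 is the concentration that inhibits growth by half. TGI: concentration producing complete growth inhibition.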
Columns and labels:
Assay in all cases: NCI tumour cell line growth inhibition, 48 h
UACC-62 melanoma = system: UACC-62 melanoma
MDA-MB-231 breast = system: MDA-MB-231 breast
SN12C renal = system: SN12C renal
OVCAR-8 ovarian = system: OVCAR-8 ovarian
SF-295 CNS = system: SF-295 CNS
OVCAR-4 ovarian = system: OVCAR-4 ovarian
HOP-62 NSCLC = system: HOP-62 NSCLC
SNB-75 CNS = system: SNB-75 CNS
SK-MEL-28 melanoma = system: SK-MEL-28 melanoma
NCI-H522 lung = system: NCI-H522 lung

Structure (SMILES) | GI50 (UACC-62 melanoma) | TGI (UACC-62 melanoma) | GI50 (MDA-MB-231 breast) | TGI (MDA-MB-231 breast) | GI50 (SN12C renal) | TGI (SN12C renal) | GI50 (OVCAR-8 ovarian) | TGI (OVCAR-8 ovarian) | GI50 (SF-295 CNS) | TGI (SF-295 CNS) | GI50 (OVCAR-4 ovarian) | TGI (OVCAR-4 ovarian) | GI50 (HOP-62 NSCLC) | TGI (HOP-62 NSCLC) | GI50 (SNB-75 CNS) | TGI (SNB-75 CNS) | GI50 (SK-MEL-28 melanoma) | TGI (SK-MEL-28 melanoma) | GI50 (NCI-H522 lung) | TGI (NCI-H522 lung)
COc1ccc2c(c1)C(=O)c1c-2c(N2CCN(C(=O)CCNCCNCCN)CC2)nc2ccccc12 | 22.3 µM | 55.3 µM | 7.25 µM | 27.5 µM | 12.2 µM | 38.6 µM | 19.9 µM | 72.2 µM | 20.8 µM | 44.7 µM | 20.4 µM | 38.3 µM | 2.93 µM | 7.51 µM | 27.8 µM | 51.6 µM | 2.04 µM | 3.66 µM | 11.2 µM | 41.1 µM
O=C(Nc1cn[nH]c1-c1nc2ccc(CN3CCOCC3)cc2[nH]1)NC1CC1 | 1.37 µM and 3.81 µM | 3.5 µM and > 10 µM | 1.18 µM and 1.48 µM | 10.3 µM and > 10 µM | 0.468 µM and 2.54 µM | 12.1 µM and > 10 µM | 1.74 µM and 5.19 µM | 9.63 µM and > 10 µM | 0.195 µM and 1.09 µM | 1.5 µM and 4.67 µM | 1.04 µM and > 10 µM | 12.4 µM and > 10 µM | 0.721 µM and 1.93 µM | 4.01 µM and > 10 µM | 0.0327 µM and 0.214 µM | 0.367 µM and 1.62 µM | 1.79 µM and > 10 µM | 5.7 µM and > 10 µM | 0.563 µM and 1.18 µM | 3.43 µM and > 10 µM
C/C(CC(C)(C)N1CC1)=N\NC(=O)Nc1cccc2ccccc12 | 4.06 µM | 15.8 µM | 3.25 µM | 9.42 µM | 5.76 µM | 77.9 µM | 2.64 µM | 13.4 µM | 7.01 µM | 35.5 µM | 4.23 µM | 15.9 µM | 4.12 µM | 15.8 µM | 2.62 µM | 13.8 µM | 7.07 µM | 19.8 µM | 2.04 µM | 5.36 µM
C#Cc1cccc(NC(=O)c2cccc(NC(=O)CCl)c2)c1 | 26.9 µM | > 82.5 µM | 16 µM | 37.2 µM | 14.9 µM | 49.1 µM | 17.5 µM | > 82.5 µM | 51.1 µM | > 82.5 µM | 15.8 µM | 33.9 µM | 27.8 µM | > 82.5 µM | 12.3 µM | 75.5 µM | 43.1 µM | > 82.5 µM | 12.7 µM | 33.4 µM
O=C(c1ccc2ccccc2c1)c1c(C(F)(F)F)n([O-])c2cc(C(F)(F)F)ccc2[n+]1=O | 1.55 µM | 3.06 µM | 1.7 µM | 3.25 µM | 1.68 µM | 3.81 µM | 2.02 µM | 5.2 µM | 1.45 µM | 2.84 µM | 1.22 µM | 3.51 µM | 1.92 µM | 3.72 µM | 1.73 µM | 3.13 µM | 1.74 µM | 3.38 µM | 1.55 µM | 3.09 µM
CCCS(=O)(=O)Nc1cccc(Nc2ncnc3cc(NC(=O)CCl)ccc23)c1Cl | 0.871 µM | 3.68 µM | 2.34 µM | 6.08 µM | 1.06 µM | 3.85 µM | 3.71 µM | 14.1 µM | 3.33 µM | 7.17 µM | 2.95 µM | 7.76 µM | 2.36 µM | 7.12 µM | 2.46 µM | 5.72 µM | 2.45 µM | 9.67 µM | 0.432 µM | 0.913 µM
O=S(=O)(O)n1ccnc1 (tested in a mixture with another compound) |  | > 100 µM |  | > 100 µM |  | > 100 µM |  | > 100 µM |  | > 100 µM |  | > 100 µM |  | > 100 µM |  | > 100 µM |  | > 100 µM |  | > 100 µM
CCN(CC)CCn1c(=O)c2cc(OC)c(OC)cc2c2ccc3cc4c(cc3c21)OCO4 | 0.163 µM | 14.8 µM | 1.29 µM | 3.66 µM | 0.455 µM | 20.2 µM | 0.922 µM | 48.9 µM | 0.0907 µM | 2.54 µM | 0.477 µM | 19.9 µM | 0.246 µM | 13.8 µM | 0.305 µM | 15.4 µM | 12 µM | 24.8 µM | 0.151 µM | 21 µM
CC1OC(CC(=O)O)Cc2c1c(O)c1c(O)cc(-c3cc(=O)c4c(=O)c5c(c(=O)c=4c3=O)CC(CC(=O)O)OC5C)c(O)c1c2O (centres undefined) | 48.9 µM | 17.7 µM | 29.4 µM | 64.9 µM | 29.2 µM | 32 µM |  | 75.9 µM | 77.3 µM | > 100 µM | 35.1 µM | 39.7 µM | 71 µM | > 100 µM | 19.4 µM | > 100 µM and 57.1 µM | 79.5 µM | 29.5 µM | 17.8 µM | 18.9 µM and 64.7 µM
CCOC(=O)Nc1ccc2c(c1)C(=O)N(CC)c1ccccc1O2 | 0.101 µM | > 100 µM | 0.4 µM | > 100 µM | 0.449 µM | > 100 µM | 0.235 µM | > 100 µM | 0.0846 µM | 0.79 µM | 0.237 µM | > 100 µM | 0.128 µM | > 100 µM | 0.188 µM | > 100 µM | 12.5 µM | > 100 µM | 0.0797 µM | 1.09 µM
